The values that follow come from ChEMBL document CHEMBL5257140, “Novel Imidazotriazine Derivatives as IL-17 Modulators for Treating Inflammatory and Autoimmune Disorders” (ACS Med Chem Lett, 2023).

pIC50: −log10 of the molar value.

What is called pIC50 is the negative decadic logarithm of the IC50, by convention in mol/L. Low values mean a large IC50, high ones a small IC50.

The assay is described as follows: Inhibition of IL-6 release in IL-17A/TNFalpha-stimulated HDF cells preincubated with IL-17A and TNFalpha for 5 hrs followed by […] to assay plate and measured after 18 to 20 hrs by europium cryptate and Alexa 665 reagent based FRET assay. The assay is classed as functional, cell-based. To be noted: Homo sapiens, NHDF.
As for `Cc1nonc1C(=O)N[C@H](c1cn2ncc([C@@H]3C[C@](C)(O)CCN3C(=O)[C@@H]3CCC(F)(F)CO3)nc2n1)C1CCC(F)(F)CC1`, the pIC50 is 8.40.
In the case of `Cc1nonc1C(=O)N[C@H](c1cn2ncc([C@@H]3COCCN3C(=O)C3CCC(F)(F)CO3)nc2n1)C(C1CC1)C1CC1` (stereo partly specified) it was 8.40.
To `Cc1nonc1C(=O)N[C@H](c1cn2ncc([C@H]3C[C@](C)(O)CCN3C(=O)[C@@H]3CCC(F)(F)CO3)nc2n1)C1CCC(F)(F)CC1` belongs 8.30.
To `Cc1nonc1C(=O)N[C@H](c1cn2ncc([C@H]3C[C@H](O)CCN3C(=O)[C@@H]3CCC(F)(F)CO3)nc2n1)C1CCC(F)(F)CC1` belongs 8.40; to `Cc1nonc1C(=O)N[C@H](c1cn2ncc([C@@H]3COCCN3C(=O)[C@@H]3CCC(F)(F)CO3)nc2n1)C1CCC(F)(F)CC1`, 8.20.
Regarding `Cc1nonc1C(=O)N[C@H](c1cn2ncc([C@@H]3C[C@@](O)(C(F)(F)F)CCN3C(=O)[C@@H]3CCC(F)(F)CO3)nc2n1)C1CCC(F)(F)CC1`, the pIC50 was 8.60.
